Data reported in patent publication EP0103381B1, “Substituted anthra(1,9-cd)pyrazol-6(2H)-ones” (WARNER-LAMBERT COMPANY, priority 1982, dated 1984).

What was measured:
Aerobacter aerogenes = test: agar plate paper-disc inhibition zone screening; assay type: cell-based; settings: Klebsiella aerogenes, read-out: Inhibition Zone Diameter mm (Dose mg/ml) A. Aerogenes; for zone of inhibition at 500 µg/mL: Dose 0.5 mg/ml; for zone of inhibition at 3000 µg/mL: Dose 3.0 mg/ml
Description: (§1) The bacterial and yeast isolates are maintained in agar slants or in liquid media, hereby designated as inoculum media. The cultures are transferred at regular intervals in such media. (See Table for the corresponding inoculum media of each culture.) The organisms are generally transferred on to agar slants or liquid inoculum media and incubated overnight (18-20 hours): 37°C for the bacterial isolates and 28°C for the fungal cultures.
(§2) The microbial cells from the overnight agar slants are then scraped off and suspended in saline solution (0.85% NaCI). The microbial concentrations are adjusted to a light transmittancy of 20-35%, Junior Coleman Spectrophotometer (555 M). For the organisms that are maintained in liquid media, an aliquot of the culture suspension is simply diluted with saline to 20-35% light transmittancy.
(§3) The above microbial suspension serve as inocula for the assay plates. Thus, 0.16-10 ml (see Table for exact amount) are used to inoculate 100 ml of the molten-agar assay medium.
(§4) Stainless steel frames, 12.3 x 25.3 cm (ID) and glass plates, 15.3 x 31.7 cm are used to make the test trays. The frames are attached to the plates with tape at each end and the inner edges sealed with 2% agar. Twenty five ml of inoculated assay medium is spread evenly on each tray and allowed to solidify. The trays are covered, inverted, and refrigerated until used.
(§5) The compounds or samples to be tested are dissolved in suitable solvents, e.g., alcohols, dimethylsulfoxide, or N,N-dimethylformamide. The samples are generally dissolved so that the final concentration of the solvent is <10%.^* The compounds are tested at different concentrations: 3,000; 1,000; 500; 100; and 10 mcg/ml. Paper discs (12.7 mm diameter) are placed on the agar trays with forceps, then 0.08 ml of the dissolved compound is pipetted onto each disc using a 0.2 ml pipette.
(§6) The disked agar trays are incubated overnight (18-20 hours) at 37°C for the bacterial cultures and 28°C for the yeasts. The Penicillium avellaneium tray is incubated for at least […] since it is a slower- growing organism.
(§7) Active compounds show a zone of inhibition around the disc. The diameter of the zone is measured in mm. The zone diameter of active compounds ranges from a minimum of 13.5 mm to as high as 60 mm. The size of the zone diameter generally reflects the activity of the compound: the larger the zone the greater the activity.

Streptococcus faecalis = test: agar plate paper-disc inhibition zone screening; assay type: cell-based; settings: Enterococcus faecalis, read-out: Inhibition Zone Diameter mm (Dose mg/ml) S. Faecalis; for zone of inhibition at 3000 µg/mL: Dose 3.0 mg/ml
Description: as §1, §2, §3, §4, §5, §6, §7

Bacillus subtilis = test: agar plate paper-disc inhibition zone screening; assay type: cell-based; settings: read-out: Inhibition Zone Diameter mm (Dose mg/ml) B. Subtilis; for zone of inhibition at 1000 µg/mL: Dose 1.0 mg/ml; for zone of inhibition at 3000 µg/mL: Dose 3.0 mg/ml
Description: as §1, §2, §3, §4, §5, §6, §7

Escherichia coli = test: agar plate paper-disc inhibition zone screening; assay type: cell-based; settings: read-out: Inhibition Zone Diameter mm (Dose mg/ml) E. Coli; for zone of inhibition at 100 µg/mL: Dose 0.1 mg/ml; for zone of inhibition at 500 µg/mL: Dose 0.5 mg/ml
Description: as §1, §2, §3, §4, §5, §6, §7

[1] = test system: lymphocytic leukemia P388; test: in vivo lymphocytic leukemia P388 test; design: species or system mice; settings: Mus musculus, P388, ip, 720 h, two single doses four days apart, read-out: T/C × 100 (Percent); for response vs control in vivo at 0.78 mg/kg: P388, Dose 0.78 mg/kg intraperitoneally; for response vs control in vivo at 1.56 mg/kg: P388, Dose 1.56 mg/kg intraperitoneally; for response vs control in vivo at 25 mg/kg: P388, Dose 25 mg/kg intraperitoneally; for response vs control in vivo at 3.12 mg/kg: P388, Dose 3.12 mg/kg intraperitoneally; for response vs control in vivo at 6.25 mg/kg: P388, Dose 6.25 mg/kg intraperitoneally; for response vs control in vivo at 12.5 mg/kg: P388, Dose 12.5 mg/kg intraperitoneally
Description: The in vivo lymphocytic leukemia P388 test is carried out by the United States National Cancer Institute. The animals used are either male or female CD2F, mice. There are six to seven animals per test group. The tumor transplant is by intraperitoneal injection of dilute ascitic fluid containing cells of lymphocytic leukemia P388. The test compounds are administered intraperitoneally in two single doses with a four-day interval between doses at various dose levels following tumor inoculation. The animals are weighed and survivors are recorded on a regular basis for 30 days. A ratio of survival time for treated (T)/ control (C) animals is calculated. The criterion for efficacy is T/C x 100 > 125%. The positive control compound in this test is 1,4-dihydroxy-5,8-[bis[[2-[(2-hydroxyethyl)amino]-ethyl]amino]-9,10-anthracene- dione given at dosages ranging from 12.0 to 0.075 mg/kg. See Cancer Chemotherapy Reports, Part 3, 3, 1 (1972) for a comprehensive discussion of the protocol.

Penicillium avellaneum = test: agar plate paper-disc inhibition zone screening; assay type: cell-based; settings: Hamigera avellanea, read-out: Inhibition Zone Diameter mm (Dose mg/ml) P. Avellaneum; for zone of inhibition at 3000 µg/mL: Dose 3.0 mg/ml
Description: The Penicillium avellaneum is grown for six days, at 28°C, on an agar medium. This is to allow sporulation of the culture. The organism is then harvested by scraping off the cells from the agar surface (mycelia and spores) and suspending them in saline solution containing 0.05% Tween 80.
The suspension is adjusted to a light transmittancy of 20%. One ml of this suspension is used to inoculate 100 ml of the molten-agar assay medium.
as §4, §5, §6, §7

`CCN(CC)CCn1nc2c3c(c(NCCNCCO)ccc31)C(=O)c1ccccc1-2` [Example 2] showed a zone of inhibition at 500 µg/mL (Aerobacter aerogenes) of 18 mm, a zone of inhibition at 500 µg/mL (Streptococcus faecalis; Dose 0.5 mg/ml) of 15 mm and a zone of inhibition at 100 µg/mL (Bacillus subtilis; Dose 0.1 mg/ml) of 16 mm. It also gave a zone of inhibition at 100 µg/mL (Escherichia coli) of 14 mm, a response vs control in vivo at 0.78 mg/kg [1] of 135% and a response vs control in vivo at 1.56 mg/kg [1] of 142%. For the same molecule, the response vs control in vivo at 25 mg/kg [1] was 197% and the zone of inhibition at 3000 µg/mL (Penicillium avellaneum) was 0 mm.

Molecule `CCN(CC)CCn1nc2c3c(c(NCCNC)ccc31)C(=O)c1c(O)ccc(O)c1-2` [Example 31, 2-[2-(Diethylamino)ethyl]-7,10-dihydroxy-5-[[2-(methylamino)ethyl]amino]anthra[1,9-cd]pyrazol-6(2H)-one] has a zone of inhibition at 500 µg/mL (Aerobacter aerogenes) of 16 mm, a zone of inhibition at 3000 µg/mL (Streptococcus faecalis) of 14 mm and a zone of inhibition at 1000 µg/mL (Bacillus subtilis) of 17 mm. For the same molecule, the zone of inhibition at 500 µg/mL (Escherichia coli) was 16 mm, the response vs control in vivo at 3.12 mg/kg [1] was 154% and the response vs control in vivo at 6.25 mg/kg [1] was 163%. For the same molecule, the response vs control in vivo at 12.5 mg/kg [1] was 191%, the response vs control in vivo at 25 mg/kg [1] was 219% and the response vs control in vivo at 50 mg/kg ([1]; P388, Dose 50 mg/kg intraperitoneally) was 172%. For the same molecule, the zone of inhibition at 3000 µg/mL (Penicillium avellaneum) was 0 mm.

For `CN(C)CCn1nc2c3c(c(NCCNCCO)ccc31)C(=O)c1c(O)ccc(O)c1-2` [Example 32], the zone of inhibition at 1000 µg/mL (Aerobacter aerogenes; Dose 1.0 mg/ml) was 14 mm, the zone of inhibition at 3000 µg/mL (Streptococcus faecalis) was 0 mm and the zone of inhibition at 1000 µg/mL (Bacillus subtilis) was 15 mm. It also gave a zone of inhibition at 500 µg/mL (Escherichia coli) of 15 mm, a response vs control in vivo at 0.78 mg/kg [1] of 161% and a response vs control in vivo at 1.56 mg/kg [1] of 163%. The response vs control in vivo at 6.25 mg/kg [1] was 214% and the zone of inhibition at 3000 µg/mL (Penicillium avellaneum) was 0 mm.

`CN(C)CCn1nc2c3c(c(NCCN)ccc31)C(=O)c1c(O)ccc(O)c1-2` [Example 33, 5-[(2-Aminoethyl)amino]-2-[2-(dimethylamino)ethyl]-7,10-dihydroxyanthra[1,9-cd]pyrazol-6(2H)-one] was tested, and the zone of inhibition at 500 µg/mL (Aerobacter aerogenes) was 14 mm, the zone of inhibition at 3000 µg/mL (Streptococcus faecalis) was 16 mm and the zone of inhibition at 1000 µg/mL (Bacillus subtilis) was 14 mm. The zone of inhibition at 500 µg/mL (Escherichia coli) was 14 mm, the response vs control in vivo at 3.12 mg/kg [1] was 182% and the response vs control in vivo at 6.25 mg/kg [1] was 182%. It also gave a zone of inhibition at 3000 µg/mL (Penicillium avellaneum) of 0 mm.

With `CN(C)CCn1nc2c3c(c(NCCCN)ccc31)C(=O)c1c(O)ccc(O)c1-2` [Example 34, 5-[(3-Aminopropyl)amino]-2-[2-(dimethylamino)ethyl]-7,10-dihydroxyanthra[1,9-cd]pyrazol-6(2H)-one] the zone of inhibition at 3000 µg/mL (Aerobacter aerogenes) was 14 mm, the zone of inhibition at 3000 µg/mL (Streptococcus faecalis) was 0 mm and the zone of inhibition at 3000 µg/mL (Bacillus subtilis) was 0 mm. The zone of inhibition at 3000 µg/mL (Escherichia coli; Dose 3.0 mg/ml) was 15 mm, the response vs control in vivo at 6.25 mg/kg [1] was 196% and the response vs control in vivo at 12.5 mg/kg [1] was 205%. The zone of inhibition at 3000 µg/mL (Penicillium avellaneum) was 0 mm.

In the case of `NCCn1nc2c3c(c(Cl)ccc31)C(=O)c1ccccc1-2` [H; Cl*; (CH2)2NH2, 2-(2-Aminoethyl)-5-chloroanthra[1,9-cd]pyrazol-6(2H)-one], the zone of inhibition at 100 µg/mL (Aerobacter aerogenes; Dose 0.1 mg/ml) is reported as 25 mm, the zone of inhibition at 3000 µg/mL (Streptococcus faecalis) is reported as 0 mm and the zone of inhibition at 3000 µg/mL (Bacillus subtilis) is reported as 14 mm. For the same molecule, the zone of inhibition at 100 µg/mL (Escherichia coli) was 16 mm and the zone of inhibition at 3000 µg/mL (Penicillium avellaneum) was 16 mm.

`CCN(CC)CC(O)Cn1nc2c3c(c(Cl)ccc31)C(=O)c1ccccc1-2` (centres unmarked) [H; Cl*; CH2CHOHCH2NEt2] was tested, and the zone of inhibition at 3000 µg/mL (Aerobacter aerogenes) was 17 mm, the zone of inhibition at 1000 µg/mL (Streptococcus faecalis; Dose 1.0 mg/ml) was 15 mm and the zone of inhibition at 1000 µg/mL (Bacillus subtilis) was 14 mm. It also gave a zone of inhibition at 500 µg/mL (Escherichia coli) of 14 mm and a zone of inhibition at 1000 µg/mL (Penicillium avellaneum; Dose 1.0 mg/ml) of 16 mm.
